The subject of one experiment is mice. Briefly: Novel object recognition test on mice. The experiment is classed as in vivo. Particulars: 100 and 500 μg/kg intraperitoneally, healthy mice, test started after 2 hours. As to the method:
A promotion activity of brain functions due to the compound 8 was examined using a novel object recognition test. The novel object recognition test is a method of evaluating memory and learning abilities from behaviors after showing a “familiar object” and a “novel object” to mice, utilizing the fact that the mice take exploration behaviors (behaviors such as coming closer to or smelling an object) when they find the “novel object”.
The compound 8 was dissolved in 0.1% DMSO to adjust a concentration so as to have each dose of 100 and 500 μg/kg and intraperitoneally injected to 6 mice in every administration example each in a dose of 0.25 mL. In a 0 μg/kg weight administration example of a control, 0.25 mL of a phosphoric acid buffer containing 0.1% DMSO was intraperitoneally injected. The compound 8 was administered to mice and the novel object recognition test was performed after 2 hours. That is, a mouse was put in a place where two identical objects were present for 15 minutes to let the mouse memorize the two objects (these two objects will be “familiar objects”). After the elapse of 1 day, an exploration behavior test in which the mouse was put in a place where the “familiar objects and “novel objects” were present was carried out for 10 minutes FIG. 33 show the results. Significance tests were performed in a Student's t-test (*) and a Turkey's test (##). […]

Experiment [1] concerns mRNAs of BDNF, NT-3, NGF and GR. Briefly: mRNA expression of neurotrophic factors and glucocorticoid receptor in cortex of frontal lobe and hippocampus. The experiment is classed as in vivo, mice. As to conditions: 24 hours after 3 weeks of stress with compound 8, RT-PCR relative to β actin. As to the method: mRNA expressions of a brain-derived neurotrophic factor (hereinafter expressed as “BDNF”), neurotrophin-3 (hereinafter expressed as “NT-3”), a nervous growth factor (hereinafter expressed as “NGF”) and a glucocorticoid receptor (hereinafter expressed as “GR”) in a cortex of frontal lobe and a hippocampus of a mouse after stress were examined as follows. After 24 hours from completion of stress for 3 weeks in the same method as described in Example 2, mice administered with the compound 8 in each of the amounts of 0, 20, 100 and 500 μg/kg, at the same time as stress, and non-stressed mice administered with only a phosphoric acid buffer containing 0.1% DMSO were sacrificed and the cortexes of frontal lobes and hippocampi were excised respectively, and thereto were added TriZol. […]
The obtained precipitate was washed with 70% ethanol, dried and then dissolved in TE to form a total RNA sample. […] The fluorescence intensity of the band was read with a densitometer to digitalize and the obtained value was divided with a fluorescence intensity of a band of RT-PCR of β actin mRNA of an internal standard, which has been found separately, and a graph was formed assuming that the band value of a non-stressed mouse/β actin band value was 1.0. […]

Structures are written as SMILES.

Turning to `CCCCCCC/C=C/C(=O)OCC` [Compound 8, trans-2-decenoic acid ethyl ester], the “recognition index of novel objects” value with mice is “became high”. Besides, the “expression of mRNAs of BDNF, NT-3, NGF and GR” value in experiment [1] is reported as “returned to the level of non-stressed examples”.

Values taken from US8557864B2, “Agent having neurotrophic factor-like activity” (Nagoya Industrial Science Research Institute, priority 2007, dated 2013).
